Results published in patent US12285407B2, “Bis-indolylmethane derivatives and uses thereof” (The University of The West Indies, priority 2018, dated 2025).
Where two headings read alike, the source gives them in different places.

Experiments:
[1] = test system: Streptococcus pneumoniae; assay: Adjuvant broth microdilution (antibiotic MIC with SP-BIM at 50 μg/mL); assay type: cell-based; settings: Streptococcus pneumoniae; Streptococcus pneumonia; antibiotic alone; Table 5; read-out: MIC of antibiotic, No compound
[2] = test system: Escherichia coli; assay: microbe, parasite or virus in culture; assay type: cell-based; settings: antibiotic alone, Table 6, read-out: MIC of antibiotic, No compound
[3] = test system: Escherichia coli O157:H7; assay type: cell-based; settings: antibiotic alone, no SP-BIM
[4] = test system: Staphylococcus aureus; assay: Checkerboard synergy (FICI) of antibiotics with SP-BIM; assay type: cell-based; settings: Staphylococcus aureus, Staphylococcus aureus; for MIC: 24 h, antibiotic alone, read-out: MIC antibiotic only
[5] = test system: Streptococcus pneumoniae; assay: as above; assay type: cell-based; settings: for MIC: 24 h, antibiotic alone, read-out: MIC antibiotic only
[6] = test system: Bacillus cereus; assay: as above; assay type: cell-based; settings: for MIC: 24 h, antibiotic alone, read-out: MIC antibiotic only
[7] = test system: Enterococcus faecium; assay: as above; assay type: cell-based; settings: Enterococcus faecium, Enterococcus faecium; for MIC: 24 h, antibiotic alone, read-out: MIC antibiotic only
[8] = test system: Klebsiella pneumoniae; assay: as above; assay type: cell-based; settings: for MIC: 24 h, antibiotic alone, read-out: MIC antibiotic only
[9] = test system: clinical strains of MRSA; assay: Kirby Bauer disc diffusion susceptibility profile; assay type: cell-based, Staphylococcus aureus; settings: for Zone of clearance: 35° C., 24 hours, average n=3; for Interpretive standard (resistant/susceptible): zones vs EUCAST breakpoints (Table 30)
[10] = test system: Escherichia coli; assay: Checkerboard synergy (FICI) of antibiotics with SP-BIM; parameters: MIC SP-BIM 13 only / MIC in combination: Antibiotic: unit not given beside the values; settings: for MIC: 24 h
[11] = test system: Candida albicans; assay: as above; parameters: MIC SP-BIM 13 only / MIC in combination: Antibiotic / MIC antibiotic only: unit not given beside the values
[12] = SP-BIM 9 in combination with the labelled antibiotic
[13] = SP-BIM 13 in combination with the labelled antibiotic
[14] = antibiotic in combination with SP-BIM 9
[15] = antibiotic in combination with SP-BIM 13
[16] = Streptococcus pneumonia (title: Streptococcus pyogenes), antibiotic + SP-BIM 9
[17] = Streptococcus pneumoniae, antibiotic + SP-BIM 13
[18] = MIC of the antibiotic in combination with SP-BIM 13

Question: What does the source list for `C[C@H]1c2cccc(O)c2C(=O)C2=C(O)[C@]3(O)C(=O)C(C(N)=O)=C(O)[C@@H](N(C)C)[C@@H]3[C@@H](O)[C@@H]21` [Doxycycline, doxycycline]?
Answer: MIC [1]: 63 µg/mL; MIC [2]: 63 µg/mL; MIC of antibiotic, No Compound [3]: 2 µg/mL; MIC ([4]; SP-BIM 9 checkerboard): 8 µg/mL; MIC ([4]; SP-BIM 13 checkerboard): 8 µg/mL; FIC of SP-BIM 9 [4, 12]: 0.13; FIC of SP-BIM 13 [4, 13]: 0.3; Interpretation ([4]; antibiotic + SP-BIM 9): Synergy (Synergy: FICI≤0.5); Σ FIC ([4]; antibiotic + SP-BIM 9): <0.38; Interpretation ([4]; antibiotic + SP-BIM 13): Synergy (Synergy: FICI≤0.5); Σ FIC ([4]; antibiotic + SP-BIM 13): 0.4; MIC in combination, Antibiotic [4, 14]: 2.0 µg/mL; MIC in combination, Antibiotic [4, 15]: 1 µg/mL; FIC of antibiotic ([4]; in combination with SP-BIM 9): 0.25; FIC of antibiotic ([4]; in combination with SP-BIM 13): 0.1; FIC of SP-BIM 9 ([5]; Streptococcus pneumonia (title: Streptococcus pyogenes), SP-BIM 9 in combination with the labelled antibiotic): 0.50; Interpretation [5, 16]: Additive (Additive: FICI>0.5-1.0); Σ FIC [5, 16]: <0.75; MIC in combination, Antibiotic ([5]; Streptococcus pneumonia (title: Streptococcus pyogenes), antibiotic in combination with SP-BIM 9): 4 µg/mL; FIC of antibiotic ([5]; Streptococcus pneumonia (title: Streptococcus pyogenes), in combination with SP-BIM 9): 0.25; MIC ([5]; Streptococcus pneumoniae, Streptococcus pneumonia (title: Streptococcus pyogenes), SP-BIM 9 checkerboard): 16 µg/mL; MIC ([5]; Streptococcus pneumoniae, Streptococcus pneumoniae, SP-BIM 13 checkerboard): 16 µg/mL; FIC of SP-BIM 13 ([5]; Streptococcus pneumoniae, SP-BIM 13 in combination with the labelled antibiotic): 0.3; Interpretation [5, 17]: Synergy (Synergy: FICI≤0.5); Σ FIC [5, 17]: <0.3; MIC in combination, Antibiotic ([5]; Streptococcus pneumoniae, antibiotic in combination with SP-BIM 13): 1 µg/mL; FIC of antibiotic ([5]; Streptococcus pneumoniae, in combination with SP-BIM 13): 0.1; MIC ([6]; SP-BIM 9 checkerboard): 4 µg/mL; MIC ([6]; SP-BIM 13 checkerboard): 4 µg/mL; MIC in combination, SP-BIM 9 ([6]; SP-BIM 9 concentration in combination with the labelled antibiotic): 125 µg/mL; FIC of SP-BIM 9 [6, 12]: 0.5; FIC of SP-BIM 13 [6, 13]: 0.3; Interpretation ([6]; antibiotic + SP-BIM 9): Synergy (Synergy: FICI≤0.5); Σ FIC ([6]; antibiotic + SP-BIM 9): <0.6; Interpretation ([6]; antibiotic + SP-BIM 13): Synergy (Synergy: FICI≤0.5); Σ FIC ([6]; antibiotic + SP-BIM 13): 0.5; MIC in combination, Antibiotic [6, 14]: 0.5 µg/mL; MIC in combination, Antibiotic [6, 15]: 1 µg/mL; FIC of antibiotic ([6]; in combination with SP-BIM 9): 0.125; FIC of antibiotic ([6]; in combination with SP-BIM 13): 0.25; MIC ([7]; SP-BIM 9 checkerboard): 8 µg/mL; MIC ([7]; SP-BIM 13 checkerboard): 8 µg/mL; FIC of SP-BIM 13 [7, 13]: 0.5; Interpretation ([7]; antibiotic + SP-BIM 13): Additive (Additive: FICI>0.5-1.0); Σ FIC ([7]; antibiotic + SP-BIM 13): 0.6; MIC in combination, Antibiotic [7, 15]: 1 µg/mL; FIC of antibiotic ([7]; in combination with SP-BIM 13): 0.1; MIC ([8]; SP-BIM 9 checkerboard): 16 µg/mL; MIC ([8]; SP-BIM 13 checkerboard): 16 µg/mL; FIC of SP-BIM 9 [8, 12]: 0.5; FIC of SP-BIM 13 [8, 13]: 0.3; Interpretation ([8]; antibiotic + SP-BIM 9): Additive (Additive: FICI>0.5-1.0); Σ FIC ([8]; antibiotic + SP-BIM 9): <0.8; Interpretation ([8]; antibiotic + SP-BIM 13): Synergy (Synergy: FICI≤0.5); Σ FIC ([8]; antibiotic + SP-BIM 13): <0.4; MIC in combination, Antibiotic [8, 14]: 4 µg/mL; MIC in combination, Antibiotic [8, 15]: 2 µg/mL; FIC of antibiotic ([8]; in combination with SP-BIM 9): 0.25; FIC of antibiotic ([8]; in combination with SP-BIM 13): 0.1; Zone of clearance ([9]; MRSA strain 1594): 12.5 mm; Interpretive standard (resistant/susceptible) ([9]; MRSA strain 1594): R; Zone of clearance ([9]; MRSA strain 1621): 21.0 mm; Interpretive standard (resistant/susceptible) ([9]; MRSA strain 1621): S; Zone of clearance ([9]; MRSA strain 5455): 22.5 mm; Interpretive standard (resistant/susceptible) ([9]; MRSA strain 5455): S; Zone of clearance ([9]; MRSA strain 5872): 15.0 mm; Interpretive standard (resistant/susceptible) ([9]; MRSA strain 5872): R; Zone of clearance ([9]; MRSA strain 7153): 18.0 mm; Interpretive standard (resistant/susceptible) ([9]; MRSA strain 7153): R; Zone of clearance ([9]; MRSA strain 7172): 19.0 mm; Interpretive standard (resistant/susceptible) ([9]; MRSA strain 7172): R; Zone of clearance ([9]; MRSA strain 7698): 10.5 mm; Interpretive standard (resistant/susceptible) ([9]; MRSA strain 7698): R; Zone of clearance ([9]; MRSA strain 10132): 12.0 mm; Interpretive standard (resistant/susceptible) ([9]; MRSA strain 10132): R; MIC ([10]; read-out: MIC antibiotic only, Escherichia coli, antibiotic alone): 16 µg/mL; MIC ([10]; read-out: MIC antibiotic only, Escherichia coli, antibiotic alone, SP-BIM 9 checkerboard): 16 µg/mL; MIC in combination: Antibiotic [10, 18]: 2; FIC of SP-BIM 9 [10, 12]: 0.5; FIC of SP-BIM 13 [10, 13]: 0.3; Interpretation ([10]; antibiotic + SP-BIM 9): Synergy (Synergy: FICI≤0.5); Σ FIC ([10]; antibiotic + SP-BIM 9): <1.0; Interpretation ([10]; antibiotic + SP-BIM 13): Synergy (Synergy: FICI≤0.5); Σ FIC ([10]; antibiotic + SP-BIM 13): <0.4; MIC in combination, Antibiotic [10, 14]: 8 µg/mL; FIC of antibiotic ([10]; combination with SP-BIM 13): 0.1; FIC of antibiotic ([10]; in combination with SP-BIM 9): 0.5; MIC ([11]; 24 h, read-out: MIC antibiotic only): 16 µg/mL; MIC in combination: Antibiotic [11, 18]: 2; FIC of SP-BIM 13 [11, 13]: 0.5; Interpretation ([11]; antibiotic + SP-BIM 13): Additive (Additive: FICI>0.5-1.0); Σ FIC ([11]; antibiotic + SP-BIM 13): <0.6; FIC of antibiotic ([11]; combination with SP-BIM 13): 0.1
